Test results: US20200190067A1, “PHOTO-SWITCHABLE CHEMICAL INDUCERS OF DIMERIZATION FOR CONTROL OF PROTEIN FUNCTION IN CELLS BY LIGHT” (Max-Planck-Gesellschaft zur Förderung der Wissenschaften …, priority 2017, published 2020)

Experiment: UV-Vis absorption spectra
Type: physicochemical
Conditions: 50 μM dimerizer in PBS buffer (pH 7.4, 0.5% DMSO)
Method: FIG. 1: UV-Vis absorption spectra of TMP—PC—Cl (black) and 4-CmTMP—PC—Cl (red). A solution of 50 μM of the respective dimerizer in PBS buffer (pH 7.4, 0.5% DMSO) was subjected to UV-Vis absorption analysis (FIG. 1). 0.5% DMSO in PBS was used as the blank.
UV-Vis absorption spectra were recorded using SHIMADZU UV-2401PC UV-Vis Recording Spectrophotometer. A solution of 50 μM of the respective dimerizer in PBS buffer (pH 7.4, 0.5% DMSO) was subjected to UV-Vis absorption analysis (FIG. 1). 0.5% DMSO in PBS was used as the blank.

In the case of COc1cc(COC(=O)NCCCOCCOCCOCCCNC(=O)COc2c(OC)cc(Cc3cnc(N)nc3N)cc2OC)c([N+](=O)[O-])cc1OCCOCCOCCOCCOCCOCCCCCCCl [TMP—PC—Cl, 4-((21-Chloro-3,6,9,12,15-pentaoxahenicosyl)oxy)-5-methoxy-2-nitrobenzyl (1-(4-((2,4-diaminopyrimidin-5-yl)methyl)-2,6-dimethoxyphenoxy)-2-oxo-7,10,13-trioxa-3-azahexadecan-16-yl)carbamate], the absorption peak is reported as 348.5 nm.
